The values below are quoted from earlier work in publication PMC8153205 (Journal of Inflammation Research, 2021).

This series relates to rheumatoid arthritis. Particulars: RA clinical trials.

As to `NC(=O)c1cnc2[nH]ccc2c1N[C@@H]1[C@@H]2CC3C[C@H]1C[C@@](O)(C3)C2` [peficitinib], the “SUCRA for serious adverse events (safety)” value is on record as 0.66.
